The subject of test [1] is pseudorabies virus (Suid herpes virus 1, SHV-1). Conditions: cited from earlier work.
Test [2] deals with measles. Conditions: in-vitro; cited from earlier work.
The test system of test [3] is herpes viruses. Conditions: in-vitro; cited from earlier work.
Test [4] concerns HSV. Conditions: legend not given; cited from earlier work.
In test [5] the test system is VSV. Conditions: legend not given; cited from earlier work.
For test [6], the system named is Vaccinia. Conditions: legend not given; cited from earlier work.
Test [7] relates to adenovirus. To be noted: no symbol given; cited from earlier work.
For test [8], the system named is HSV Keratitis. Conditions: HSV Keratitis in rabbits; cited from earlier work.
The subject of test [9] is cucumber mosaic virus. Format: in vivo, Cucumber mosaic virus (CMV).
For test [10], the system named is influenza A2 (Japan 305). On the set-up: dose or concentration left out as unconfirmed. To be noted: in-vitro; 1/4 of its estimated maximum tolerated concentration; cited from earlier work.
In test [11] the test system is CMV. Conditions: plants infected with CMV; one range printed for CMV and ToMV; cited from earlier work.
Test [12] concerns ToMV. Conditions: plants infected with ToMV; one range printed for CMV and ToMV; cited from earlier work.
Test [13] concerns PVX. To be noted: susceptible virus PVX; cited from earlier work.
Test [14] deals with CLSV. To be noted: susceptible virus CLSV; cited from earlier work.
Test [15] relates to HSVlesions. To be noted: HSVlesions in humans; cited from earlier work.
Where [16] appears, read: 1000-ppm 2-Thiouracil as control.

“And” between values parts separate entries of the source, which are not always exact repeats. Identical values can stand only once. Like-named read-outs stand apart in the source and are kept apart here.

On to crossasteroside B, for which the inhibit plaque formation in test [1] is reported as 43%.

As to `C[C@H]1O[C@@H](O[C@H]2CC[C@@]3(C)[C@@H](CC[C@]4(C)[C@@H]3C=C[C@]35OC[C@@]6(CCC(C)(C)C[C@H]63)[C@H](O)C[C@]54C)[C@]2(C)CO)[C@H](O)[C@@H](O[C@@H]2O[C@H](CO)[C@@H](O)[C@H](O)[C@H]2O)[C@H]1O` [Saikosaponin-d], the “concentration that causes inactivation” value in test [2] and in [3] was “greater than 5 µM” in each case.

In the case of Hydroxy-protoprimulagenin, the Virucidal result in test [4] is recorded as “+HSV only”. Also, the “Other viruses: VSV” value in test [5] is recorded as “VSV Vaccinia adenovirus”. Also, in [6], the “Other viruses: Vaccinia” value is listed as “VSV Vaccinia adenovirus”. Moreover, the “Other viruses: adenovirus” value in test [7] is reported as “VSV Vaccinia adenovirus”. The Active in vivo entry in test [8] is “HSV Keratitis in rabbits”.

Regarding `NC12CC3CC(CC(C3)C1)C2` [Amantadine], in test [9] (1000-ppm Amantadine as control), the “Average No of lesions Control” value was 4.5 and 4.0 and 4.8; the “No of lesions on Control” value is 45 and 40 and 48. Besides, the “inhibition of influenza A2 (Japan 305)” value in test [10] was 98%.

`O=c1cc[nH]c(=S)[nH]1` [2-Thiouracil]: in test [9] (setting [16]), the “Average No of lesions Control” value is 1.9 and 1.7 and 1.1; the “No of lesions on Control” value was 19 and 17 and 11.

With `O=C1NCCCN1CN1CCOCC1` [DD13, 1-Morpholino methyl-tetrahydro-2-(1H)-pyrimidinone], the “protective effect in % plants infected” value in test [11] and in test [12] was 97-100% each time.

For the molecule `CC1(C)[C@@H](O)CC[C@]2(C)[C@H]3C(=O)C=C4[C@@H]5C[C@@](C)(C(=O)O)CC[C@]5(C)CC[C@@]4(C)[C@]3(C)CC[C@@H]12` [Glycyrrhetinic acid], in test [4], the Virucidal result is “+HSV only”.

With crossasteroside D, in test [1], the inhibit plaque formation was 27%.

As for `CC1(C)[C@@H](O[C@H]2O[C@H](C(=O)O)[C@@H](O)[C@H](O)[C@H]2O[C@@H]2O[C@H](C(=O)O)[C@@H](O)[C@H](O)[C@H]2O)CC[C@]2(C)[C@H]3C(=O)C=C4[C@@H]5C[C@@](C)(C(=O)O)CC[C@]5(C)CC[C@@]4(C)[C@]3(C)CC[C@@H]12` [Glycyrrhizin], in test [4], the Virucidal entry is “+slight effect”.

As to `NC(=O)c1ncn([C@@H]2O[C@H](CO)[C@@H](O)[C@H]2O)n1` [Ribavirin], the “concentration needed to inhibit local lesion development and to prevent infection” value in test [13] and in test [14] was “Approximately 1000 ppm” each time.

For Carbenoxolone/ cicloxolone, the Virucidal result in [4] is recorded as “+HSV”. Further, the Active in vivo result in [15] is “HSVlesions in humans”.

These data come from patent EP1489910B1 (priority 2002, dated 2003).
